Row | Compound | melting point [°C]
1 | COC(=O)c1ccc2c(-c3cccc(OC)c3)nc(=O)n(C(C)C)c2c1 | 164 to 167
2 | COc1cc(CBr)ccc1OC(=O)c1ccccc1 | 86 to 88
3 | O=C(CN1CCCC1=O)NCC(=O)Nc1ccncc1 | 243 to 245
4 | Cc1cc(NS(=O)(=O)c2cc(C3(O)CCC(=O)N3C)ccc2Cl)cc(C(C)(C)C)c1O (centres undefined) | 120
5 | CSc1nc(O)c(-c2ccc(C)cc2)c(O)n1 | 226
6 | COc1ccc(C(=O)Nc2ccccc2)cc1Nc1ccc(C2=NC(C)(C)CO2)cc1 | 221 to 222
7 | O=c1oc(-c2ccc(OCc3ccc(Cl)c(Cl)c3)cc2)cc(O)c1SCCc1ccccc1 | 168 to 169
8 | COc1ccc(COc2ccc(C=C(C=O)C(C=O)=Cc3ccc(OCc4ccc(OC)cc4)cc3)cc2)cc1 | 218 to 220
9 | Cc1ccc(S(=O)(=O)N2CCN(S(=O)(=O)c3ccc(C)cc3)[C@@H](c3ccccc3)C2)cc1 | 258
10 | COc1ccc(-c2ccc(NCc3ccccc3)nn2)cc1OC1CCCC1 | 116
11 | CCC(=O)Nc1cccc(-c2ccnc3c(C(=O)c4ccccc4)cnn23)c1 | 172 to 174
12 | Cc1cc(C)c(-n2nnc3c(-c4ccc(Cl)cc4Cl)nc(C)nc32)c(C)c1 | 167 to 168
13 | C=CC(=O)c1ccc(O)cc1 | 99 to 103
14 | CC(C)(C)CN1C(=O)C(=O)N(c2ccc(F)cc2)C1=S | 165 to 166
15 | CCOC(=O)c1c(Nc2ccccc2)nc2ccc(Br)cc2c1Cl | 171 to 172
16 | CC=Cc1cc(C(=O)c2ccccc2F)c(Cl)c(Cl)c1O | 83 to 84
17 | Cc1ccc(S(=O)(=O)OCCCn2c3c(c4ccccc4c2=O)C(=O)c2ccccc2-3)cc1 | 177 to 179
18 | O=C(NCc1ccccc1)c1cccc(-c2nc(=O)c3ccccc3s2)n1 | 197 to 198
19 | CCOCC(=O)NC1CCN(C[C@@]23C[C@@H](c4ccccc42)c2ccc(Cl)cc23)CC1 | 68 to 70
20 | Cc1cn(S(=O)(=O)c2cccc(C(C)(C)C)c2)c2ccc(C(F)(F)F)cc12 | 90 to 108

Row | Compound | melting point [°C]
21 | Cc1nc(-c2ccc(Br)cc2)n(-c2ccc(S(C)(=O)=O)cn2)n1 | 211 to 212
22 | CCOC(=O)CC(NC(C)=O)C(=O)c1ccco1 (centres undefined) | 82 to 84
23 | COc1ccc(-c2cc(SC)sc2-c2ccc(OC)cc2)cc1 | 106 to 108
24 | CNc1nc(OC(F)F)cc(OC(F)F)n1 | 54 to 55
25 | COP(=O)(COC1C=CC(n2cnc3c(N)ncnc32)O1)OC (centres undefined) | 146 to 149
26 | O=C(C=CC1CCCCC1)NCCc1cccc(OCc2ccccc2)c1 | 98 to 100
27 | CCCc1nc2c(N)nc3ccccc3c2n1CCCC(C)N(OC)C(=O)Nc1ccccc1 (centres undefined) | 140 to 142
28 | N#Cc1ccc(N2C(=O)C=C(O)C2Cc2ccccc2)cc1Cl (centres undefined) | 188 to 189
29 | CNc1cc(CC2(C)CC3C(=C(C)C(C)=C(N)C3C)O2)ccc1-c1ccn[nH]1 (centres undefined) | 113 to 117
30 | CCCCCC(=O)c1c(CBr)nc2cc(OC)c(OC)cc2c1-c1ccc(OC)c(OC)c1 | 146 to 147
31 | C#CCN1C(=O)CCc2cc(Cl)cc(Cl)c21 | 92 to 95
32 | CCCCCCCCCCN1CCC2(CC1)CSC1=C(O2)c2ccccc2C(=O)C1=O | 110 to 111
33 | O=C1c2ccccc2C(=O)c2c(NC(=O)[C@@H]3C[C@H]3c3ccccc3)ccc(NC(=O)[C@@H]3C[C@H]3c3ccccc3)c21 (relative stereo) | 272 to 274
34 | O=C1Nc2ccc(Br)cc2C12OCCCO2 | 166 to 168
35 | COc1cc2ccc(COC(C)=O)cc2cc1OC | 71 to 75
36 | Cn1c(-c2ccc(-n3cnc4ccccc43)cc2)cnc1[C@H](Cc1ccccn1)N(C=O)c1cc2ccccc2o1 | 152 to 155
37 | C#CCOc1cc(-n2c(OC)nc(C(F)(F)F)cc2=O)c(F)cc1Cl | 108 to 110
38 | O=C(NN=Cc1c(O)ccc2ccccc12)c1ccccc1O | 265
39 | Cc1nc(Nc2ccc(F)cc2)nc(O)c1C | 256
